According to patent publication EP0908457B1, “3-(1,2-benzisothiazol- and isoxazol-5-Y1)-2,4(1H,3H)-pyrimidinedione or thione and 3-(1,2-benzisothiazol- and isoxazol-5-y1)-4(3H)-pyrimidinone or thione herbicidal agents” (BASF AKTIENGESELLSCHAFT, priority 1997, dated 1999):

Tests used:
[1] = test system: Cyperus iria; assay: Preemergence weed control under flooded paddy conditions, CYPIR (Rice Flatsedge); assay type: in vivo; settings: flooded paddy; further: meaning of each grade not given here
[2] = test system: Cyperus serotinus, Rottb.; assay: Preemergence weed control under flooded paddy conditions, CYPSE (Flatsedge); assay type: in vivo; further: meaning of each grade not given here
[3] = test system: Sagittaria pygmaea, L.; assay: Preemergence weed control under flooded paddy conditions, SAGPY (Arrowhead (Pygmaea)); assay type: in vivo; settings: flooded paddy; further: meaning of each grade not given here
[4] = test system: Echinochloa oryzoides (Ard.) Fritsch.; assay: Preemergence weed control under flooded paddy conditions, ECHORC (Watergrass (Calif.)); assay type: in vivo; settings: flooded paddy; further: meaning of each grade not given here
[5] = test system: Oryza sativa, (L.) Tebonnet; assay: Rice tolerance to post-transplant applications under flooded paddy conditions (Example 187), ORYSAT (Rice, Tebonnet); on herbicidal effect rating ORYSAT: meaning of each grade not given here
[6] = test system: Monochoria vaginalis, Presl.; assay: Preemergence weed control under flooded paddy conditions, MOOVA (Monochoria); assay type: in vivo; settings: flooded paddy; further: meaning of each grade not given here
[7] = Rate 0.0320 kg/ha, preemergence weeds, rated three to four weeks after treatment
[8] = Rate 0.0620 kg/ha, preemergence weeds, rated three to four weeks after treatment
[9] = Rate 0.1250 kg/ha, preemergence weeds, rated three to four weeks after treatment
[10] = Rate 0.2500 kg/ha, preemergence weeds, rated three to four weeks after treatment
[11] = Rate 0.0320 kg/ha, preemergence, rated 3-4 weeks after treatment
[12] = Rate 0.0620 kg/ha, preemergence, rated 3-4 weeks after treatment
[13] = Rate 0.1250 kg/ha, preemergence, rated 3-4 weeks after treatment
[14] = Rate 0.2500 kg/ha, preemergence, rated 3-4 weeks after treatment
[15] = Rate 0.5000 kg/ha, preemergence, rated 3-4 weeks after treatment
[16] = Rate 0.0620 kg/ha, rated 3-4 weeks after treatment
[17] = Rate 0.1250 kg/ha, rated 3-4 weeks after treatment
[18] = Rate 0.2500 kg/ha, rated 3-4 weeks after treatment
[19] = Rate 0.5000 kg/ha, rated 3-4 weeks after treatment
[20] = 0.0313 kg/ha, preemergence weeds, rated three to four weeks after treatment
[21] = 0.0625 kg/ha, preemergence weeds, rated three to four weeks after treatment
[22] = 0.1250 kg/ha, preemergence weeds, rated three to four weeks after treatment
[23] = 0.2500 kg/ha, preemergence weeds, rated three to four weeks after treatment

For `Cn1c(C(F)(F)F)cc(=O)n(-c2ccc3snc(C(=O)Nc4cc(C(C)(C)C)on4)c3c2)c1=O` [Example 331, 1,2-Benzisothiazole-3-carboxamide, N-(5-tert-butylisoxazol-3-yl)-5-[3,6-dihydro-3-methyl-2,6-dioxo-4-(trifluoromethyl)-1(2H)-pyrimidinyl]-], the “herbicidal effect rating, CYPIR” value [1, 7] was 0.0, the “herbicidal effect rating, CYPIR” value [1, 8] was 0.0 and the “herbicidal effect rating, CYPIR” value [1, 9] was 5.0. The “herbicidal effect rating, CYPIR” value [1, 10] was 9.0, the “herbicidal effect rating, CYPSE” value [2, 7] was 0.0 and the “herbicidal effect rating, CYPSE” value [2, 8] was 0.0. For the same compound, the “herbicidal effect rating, CYPSE” value [2, 9] was 0.0, the “herbicidal effect rating, CYPSE” value [2, 10] was 0.0 and the “herbicidal effect rating, SAGPY” value [3, 7] was 0.0. The “herbicidal effect rating, SAGPY” value [3, 8] was 0.0, the “herbicidal effect rating, SAGPY” value [3, 9] was 0.0 and the “herbicidal effect rating, SAGPY” value [3, 10] was 0.0. The “herbicidal effect rating, ECHORC” value [4, 7] was 0.0, the “herbicidal effect rating, ECHORC” value [4, 8] was 2.0 and the “herbicidal effect rating, ECHORC” value [4, 9] was 4.0. The “herbicidal effect rating, ECHORC” value [4, 10] was 8.0, the “herbicidal effect rating ORYSAT” value ([5]; Rate 0.0320 kg/ha, rated three to four weeks after treatment) was 0.0 and the “herbicidal effect rating ORYSAT” value ([5]; Rate 0.0620 kg/ha, rated three to four weeks after treatment) was 0.0. The “herbicidal effect rating ORYSAT” value ([5]; Rate 0.1250 kg/ha, rated three to four weeks after treatment) was 0.0, the “herbicidal effect rating ORYSAT” value ([5]; Rate 0.2500 kg/ha, rated three to four weeks after treatment) was 1.0 and the “herbicidal effect rating, MOOVA” value [6, 7] was 9.0. For the same compound, the “herbicidal effect rating, MOOVA” value [6, 8] was 9.0, the “herbicidal effect rating, MOOVA” value [6, 9] was 9.0 and the “herbicidal effect rating, MOOVA” value [6, 10] was 9.0.

With `Cc1ccc(OCC(=O)c2ccc(Cl)cc2)c(-c2nsc3ccc(-n4c(=O)cc(C(F)(F)F)n(C)c4=O)cc23)c1` [Example 538, 2,4(1H,3H)-Pyrimidinedione, 3-{3-{6-[(p-chlorophenacyl)oxy]-m-tolyl}-1,2-benzisothiazol-5-yl}-1-methyl-6-(trifluoromethyl)-] the “herbicidal effect rating, CYPIR” value [1, 11] was 0.0, the “herbicidal effect rating, CYPIR” value [1, 12] was 0.0 and the “herbicidal effect rating, CYPIR” value [1, 13] was 0.0. For the same compound, the “herbicidal effect rating, CYPIR” value [1, 14] was 0.0, the “herbicidal effect rating, CYPIR” value [1, 15] was 9.0 and the “herbicidal effect rating, CYPSE” value [2, 11] was 0.0. The “herbicidal effect rating, CYPSE” value [2, 12] was 0.0, the “herbicidal effect rating, CYPSE” value [2, 13] was 0.0 and the “herbicidal effect rating, CYPSE” value [2, 14] was 0.0. The “herbicidal effect rating, CYPSE” value [2, 15] was 0.0, the “herbicidal effect rating, SAGPY” value [3, 11] was 0.0 and the “herbicidal effect rating, SAGPY” value [3, 12] was 0.0. The “herbicidal effect rating, SAGPY” value [3, 13] was 0.0, the “herbicidal effect rating, SAGPY” value [3, 14] was 0.0 and the “herbicidal effect rating, SAGPY” value [3, 15] was 0.0. For the same compound, the “herbicidal effect rating, ECHORC” value [4, 11] was 2.1, the “herbicidal effect rating, ECHORC” value [4, 12] was 3.4 and the “herbicidal effect rating, ECHORC” value [4, 13] was 4.7. The “herbicidal effect rating, ECHORC” value [4, 14] was 9.0, the “herbicidal effect rating, ECHORC” value [4, 15] was 9.0 and the “herbicidal effect rating ORYSAT” value ([5]; Rate 0.0320 kg/ha, rated 3-4 weeks after treatment) was 0.0. The “herbicidal effect rating ORYSAT” value [5, 16] was 0.0, the “herbicidal effect rating ORYSAT” value [5, 17] was 1.0 and the “herbicidal effect rating ORYSAT” value [5, 18] was 1.0. The “herbicidal effect rating ORYSAT” value [5, 19] was 1.0, the “herbicidal effect rating, MOOVA” value [6, 11] was 9.0 and the “herbicidal effect rating, MOOVA” value [6, 12] was 9.0. The “herbicidal effect rating, MOOVA” value [6, 13] was 9.0, the “herbicidal effect rating, MOOVA” value [6, 14] was 9.0 and the “herbicidal effect rating, MOOVA” value [6, 15] was 9.0.

`Cn1c(C(F)(F)F)cc(=O)n(-c2ccc3snc(N4CCOCC4)c3c2)c1=O` [Example 116, 1-Methyl-3-(3-morpholino-1,2-benzisothiazol-5-yl)-6-(trifluoromethyl)-2,4(1H,3H)-pyrimidinedione] was tested, and the “herbicidal effect rating, CYPIR” value [1, 20] was 0.0, the “herbicidal effect rating, CYPIR” value [1, 21] was 0.0 and the “herbicidal effect rating, CYPIR” value [1, 22] was 0.0. For the same compound, the “herbicidal effect rating, CYPIR” value [1, 23] was 0.0, the “herbicidal effect rating, CYPSE” value [2, 20] was 0.0 and the “herbicidal effect rating, CYPSE” value [2, 21] was 0.0. For the same compound, the “herbicidal effect rating, CYPSE” value [2, 22] was 0.0, the “herbicidal effect rating, CYPSE” value [2, 23] was 0.0 and the “herbicidal effect rating, SAGPY” value [3, 20] was 0.0. The “herbicidal effect rating, SAGPY” value [3, 21] was 0.0, the “herbicidal effect rating, SAGPY” value [3, 22] was 0.0 and the “herbicidal effect rating, SAGPY” value [3, 23] was 0.0. For the same compound, the “herbicidal effect rating, ECHORC” value [4, 20] was 0.0, the “herbicidal effect rating, ECHORC” value [4, 21] was 0.0 and the “herbicidal effect rating, ECHORC” value [4, 22] was 0.0. For the same compound, the “herbicidal effect rating, ECHORC” value [4, 23] was 0.0, the “herbicidal effect rating, ORYSAT (rice tolerance)” value (“herbicidal effect rating, ORYSAT” for short) ([5]; 0.0313 kg/ha, rated three to four weeks after treatment) was 0.0 and the “herbicidal effect rating, ORYSAT” value ([5]; 0.0625 kg/ha, rated three to four weeks after treatment) was 0.0. The “herbicidal effect rating, ORYSAT” value ([5]; 0.1250 kg/ha, rated three to four weeks after treatment) was 0.0, the “herbicidal effect rating, ORYSAT” value ([5]; 0.2500 kg/ha, rated three to four weeks after treatment) was 0.0 and the “herbicidal effect rating, MOOVA” value [6, 20] was 0.0. The “herbicidal effect rating, MOOVA” value [6, 21] was 2.0, the “herbicidal effect rating, MOOVA” value [6, 22] was 8.0 and the “herbicidal effect rating, MOOVA” value [6, 23] was 8.0.

`CC(Oc1ccccc1-c1nsc2ccc(-n3c(=O)cc(C(F)(F)F)n(C)c3=O)cc12)C(=O)N(C)C` (stereo not drawn) [Example 551, Propionamide, 2-{o-{5-[3,6-dihydro-3-methyl-2,6-dioxo-4-(trifluoromethyl)-1(2H)-pyrimidinyl]-1,2-benzisothiazol-3-yl}phenoxy}-N,N-dimethyl-] was tested, and the “herbicidal effect rating, CYPIR” value [1, 12] was 0.0, the “herbicidal effect rating, CYPIR” value [1, 13] was 0.0 and the “herbicidal effect rating, CYPIR” value [1, 14] was 2.0. For the same compound, the “herbicidal effect rating, CYPIR” value [1, 15] was 9.0, the “herbicidal effect rating, CYPSE” value [2, 12] was 0.0 and the “herbicidal effect rating, CYPSE” value [2, 13] was 0.0. The “herbicidal effect rating, CYPSE” value [2, 14] was 0.0, the “herbicidal effect rating, CYPSE” value [2, 15] was 0.0 and the “herbicidal effect rating, SAGPY” value [3, 12] was 0.0. The “herbicidal effect rating, SAGPY” value [3, 13] was 0.0, the “herbicidal effect rating, SAGPY” value [3, 14] was 0.0 and the “herbicidal effect rating, SAGPY” value [3, 15] was 2.0. The “herbicidal effect rating, ECHORC” value [4, 12] was 4.0, the “herbicidal effect rating, ECHORC” value [4, 13] was 7.0 and the “herbicidal effect rating, ECHORC” value [4, 14] was 7.0. For the same compound, the “herbicidal effect rating, ECHORC” value [4, 15] was 9.0, the “herbicidal effect rating ORYSAT” value [5, 16] was 0.0 and the “herbicidal effect rating ORYSAT” value [5, 17] was 3.0. The “herbicidal effect rating ORYSAT” value [5, 18] was 3.0, the “herbicidal effect rating ORYSAT” value [5, 19] was 4.0 and the “herbicidal effect rating, MOOVA” value [6, 12] was 0.0. For the same compound, the “herbicidal effect rating, MOOVA” value [6, 13] was 9.0, the “herbicidal effect rating, MOOVA” value [6, 14] was 9.0 and the “herbicidal effect rating, MOOVA” value [6, 15] was 9.0.
